Laboratory results reported in PubChem BioAssay (NCI).
Where “and” joins values, the source holds several entries; their conditions need not be identical. Equal values may be shown once.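 Tested at 5 concentrations; 48 h exposure; 96-well plates; endpoints linearly interpolated, else capped at highest concentration. At the GI50, growth is halved. TGI denotes the concentration required for complete inhibition of growth.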

Key:
Assay in all cases: inhibition of tumour cell growth, NCI panel, 48 h
HOP-62 NSCLC = test system: HOP-62 NSCLC
UACC-257 melanoma = test system: UACC-257 melanoma
A549 NSCLC = test system: A549 NSCLC
U251 CNS = test system: U251 CNS
MALME-3M melanoma = test system: MALME-3M melanoma
COLO 205 colon = test system: COLO 205 colon
SF-295 CNS = test system: SF-295 CNS
OVCAR-4 ovarian = test system: OVCAR-4 ovarian
OVCAR-5 ovarian = test system: OVCAR-5 ovarian
SK-OV-3 ovarian = test system: SK-OV-3 ovarian

Row | SMILES | GI50 (HOP-62 NSCLC) [µM] | TGI (HOP-62 NSCLC) [µM] | GI50 (UACC-257 melanoma) [µM] | TGI (UACC-257 melanoma) [µM] | GI50 (A549 NSCLC) [µM] | TGI (A549 NSCLC) [µM] | GI50 (U251 CNS) [µM] | TGI (U251 CNS) | GI50 (MALME-3M melanoma) [µM] | TGI (MALME-3M melanoma) [µM] | GI50 (COLO 205 colon) [µM] | TGI (COLO 205 colon) | GI50 (SF-295 CNS) [µM] | TGI (SF-295 CNS) [µM] | TGI (OVCAR-4 ovarian) [µM] | GI50 (OVCAR-5 ovarian) [µM] | TGI (OVCAR-5 ovarian) [µM] | TGI (SK-OV-3 ovarian) [µM] | GI50 (OVCAR-4 ovarian) [µM] | GI50 (SK-OV-3 ovarian) [µM]
1 | COc1ccc(CN[C@H]2CCc3cc(OC)c(OC)c(OC)c3-c3ccc(SC)c(=O)cc32)c(OC)c1OC | 0.375 | > 100 | 0.037 | > 100 | 0.0251 | > 100 | 0.0299 | 0.0444 µM and 0.103 µM | < 0.01 | > 100 | < 0.01 | 0.0645 µM and 0.0155 µM | 0.0167 | > 100 | > 100 | > 100 | > 100 | > 100 |  | 
2 | COc1ccc2c(c1)/C(=N/OC(C)=O)c1c-2c(Nc2ccc(/C(C)=N/OC(C)=O)cc2)nc2ccccc12 | 38.1 | > 100 | > 100 | > 100 | 59.6 | > 100 | 96.8 | > 100 µM | 56.8 | > 100 | > 100 | > 100 µM | > 100 | > 100 | 45.1 | > 100 | > 100 | > 100 | 20.8 | 71.6
3 | CN1CCN(Cc2ccc(NC(=O)c3cncc(C#Cc4cncc5[nH]ncc45)c3)cc2C(F)(F)F)CC1 | 0.882 | 4.86 | 0.5 | 4.48 | 1.67 | 6.79 | 1.53 | 7.76 µM | 0.0987 | 0.383 | 0.192 | 3.56 µM | 1.73 | 7.4 | 5.34 | 0.601 | 5.96 | 4.89 | 0.171 | 1.4
4 | O=[N+]([O-])C1(CO)COC2(OC1)c1ccccc1-c1ccccc12 |  | > 100 |  | > 100 |  | > 100 |  | > 100 µM |  | 73.9 |  | > 82.4 µM |  | > 100 | > 100 |  | > 100 | > 100 |  | 
5 | O=C(Nc1ccc(I)cc1F)c1cc(F)ccc1O | 1.77 | 6.46 | 0.392 | 2.89 | 2.24 | > 100 | 0.578 | > 100 µM | 0.315 | 1.53 | 3.88 | 15.6 µM | 1.86 | 3.74 | 17.2 | 4.04 | > 100 | 2.59 | 0.396 | 0.465
6 | c1ccc(-c2nn(-c3ccccc3)[n+](-c3ccccc3-c3ccccc3)n2)cc1 | 2.1 | > 42.2 | 0.339 | 2.72 | 1.07 | > 100 | 0.533 | 61.8 µM | 0.248 | 1.53 | 0.205 | 0.856 µM | 1.94 | 8.99 | 24.5 | 4.19 | > 100 | > 29.1 | 0.382 | 1.29
7 | COc1cc2cc(Oc3ccc(NC(=O)Nc4cc(C(F)(F)F)cc(C(F)(F)F)c4)cc3)c(C)nc2cc1OCCN1CCCCC1 | 1.64 | 3.3 | 1.98 | 3.97 | 1.8 | 3.62 | 1.79 | 3.41 µM | 1.59 | 3.02 | 1.89 | 3.62 µM | 1.83 | 3.38 | 3.61 | 1.63 | 3.02 | 3.9 | 1.89 | 2.04
8 | CC(C)N(C(=O)C12C3C4C5C3C1(C(=O)N(C(C)C)C(C)C)C5C42)C(C)C (stereo not drawn) |  | > 100 |  | > 100 |  | > 100 |  | > 100 µM |  | > 100 |  | > 60.6 µM |  | > 100 | > 100 |  | > 100 | > 100 |  | 
9 | O=C(O)CNCc1c2ccccc2nc2ccccc12 |  | > 100 |  | > 94.9 |  | > 100 |  | > 100 µM |  | > 100 |  | > 100 µM |  | > 100 | > 89.8 |  | > 100 | > 100 |  | 
10 | Fc1ccc(-c2ncn(C3CCNCC3)c2-c2ccnc(Oc3ccc(Oc4ccccc4)cc3)n2)cc1 | 4.05 | 7.64 | 4.71 | 8.54 | 4.09 | 7.84 | 3.56 | 7.18 µM | 4.68 | 8.95 | 2.48 | 6.23 µM | 4.52 | 8.84 | 7.27 | 4.1 | 7.67 | 7.9 | 3.78 | 4.41
11 | COc1ccc(C(=O)C(CN(C)C)c2ccccc2)cc1 (stereo not drawn) | 10.9 | 23.6 | 2.39 | 10.7 | 18.1 | 96.3 | 4.39 | 14.8 µM | 3.3 | 13.6 | 2.26 | 4.21 µM | 12.6 | 32.4 | > 100 | 3.82 | 10 | 77.2 | 5.34 | 27.7
12 | CCN(Cc1cccc(C)c1)c1ccc(CO)c(Cl)c1 | 2.55 | 22 | 0.188 | 0.525 | 4.77 | 20.7 | 2.27 | 16.8 µM | 15.7 | 33.4 | 2.53 | 6.92 µM | 1.51 | 16.4 | 8.22 | 0.245 | 1.04 | 29.5 | 0.618 | 11.7
13 | CC(C(=O)C(C)O[Si](c1ccccc1)(c1ccccc1)C(C)(C)C)=P(c1ccccc1)(c1ccccc1)c1ccccc1 (stereo not drawn) |  | 9.23 |  | 13.5 |  | 13.3 |  | 14.1 µM |  | 12 |  | 3.45 µM |  | 10.3 | 13.9 |  | 24.9 | 6.81 |  | 
14 | COC(=O)C([O][Ge]([CH3])([CH3])[CH3])c1ccccc1 (stereo not drawn) | > 100 | > 100 | > 100 | > 100 | > 100 | > 100 | > 100 | > 100 µM | > 100 | > 100 | > 100 | > 100 µM | > 100 | > 100 | > 100 | > 100 | > 100 | > 100 | > 100 | > 100
